The values that follow come from the Kinase Knowledgebase extract (Sharma et al. 2016).

pIC50: −log10 of the molar value.

This experiment deals with PIK3CG (human) (UniProt P48736). The experiment in a line: Assessment of PIK3CG Kinase Activity.
Sequence of PIK3CG (human) (P48736 whole entry, looked up): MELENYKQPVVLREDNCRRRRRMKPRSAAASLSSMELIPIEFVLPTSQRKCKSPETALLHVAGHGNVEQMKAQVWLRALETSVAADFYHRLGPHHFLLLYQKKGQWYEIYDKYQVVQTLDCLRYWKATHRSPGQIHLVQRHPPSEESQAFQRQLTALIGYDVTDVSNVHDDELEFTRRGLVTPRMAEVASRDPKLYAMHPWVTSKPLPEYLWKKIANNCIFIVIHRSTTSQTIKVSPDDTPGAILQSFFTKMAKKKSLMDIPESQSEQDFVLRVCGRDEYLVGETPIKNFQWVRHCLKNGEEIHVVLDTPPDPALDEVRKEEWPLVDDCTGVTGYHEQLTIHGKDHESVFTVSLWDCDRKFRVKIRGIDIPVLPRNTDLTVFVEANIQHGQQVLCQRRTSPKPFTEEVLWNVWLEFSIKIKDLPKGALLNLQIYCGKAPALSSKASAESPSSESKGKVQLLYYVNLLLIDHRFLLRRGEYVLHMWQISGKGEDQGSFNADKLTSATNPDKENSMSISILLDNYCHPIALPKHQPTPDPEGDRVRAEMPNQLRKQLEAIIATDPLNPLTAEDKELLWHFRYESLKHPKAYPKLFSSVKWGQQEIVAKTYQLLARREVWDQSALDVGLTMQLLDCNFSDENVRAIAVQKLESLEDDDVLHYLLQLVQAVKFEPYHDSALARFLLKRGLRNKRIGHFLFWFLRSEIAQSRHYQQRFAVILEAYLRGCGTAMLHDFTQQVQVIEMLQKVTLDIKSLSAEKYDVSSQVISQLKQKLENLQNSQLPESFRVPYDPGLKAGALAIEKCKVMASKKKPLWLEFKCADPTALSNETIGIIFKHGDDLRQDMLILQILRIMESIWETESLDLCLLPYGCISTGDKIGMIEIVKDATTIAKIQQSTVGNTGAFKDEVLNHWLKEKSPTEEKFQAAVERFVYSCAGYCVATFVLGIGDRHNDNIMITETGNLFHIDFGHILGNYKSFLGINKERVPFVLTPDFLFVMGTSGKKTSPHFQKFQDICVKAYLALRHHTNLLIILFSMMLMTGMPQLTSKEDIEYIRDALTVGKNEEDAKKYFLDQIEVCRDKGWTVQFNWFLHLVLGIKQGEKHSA

Turning to `O=C(NCc1cc(CN2CCOCC2)ccn1)Nc1nc2c(s1)-c1c(c(-c3cncnc3)nn1-c1ccccc1Cl)CC2`, the pIC50 was greater than 6.10.
In the case of `CN(C)CC(=O)N1CC[C@H](CNC(=O)Nc2nc3c(s2)-c2c(c(-c4cncnc4)nn2-c2ccccc2Cl)CC3)C1` it was greater than 6.10; in that of `O=C(Nc1nc2c(s1)-c1c(c(-c3ccccc3)nn1-c1ccccc1Cl)CC2)NC1CCC(NS(=O)(=O)c2ccccc2)CC1` (stereo unspecified), greater than 6.10; in that of `CN(C)C(=O)N1CC[C@H](CNC(=O)Nc2nc3c(s2)-c2c(c(-c4ccccc4)nn2-c2cccc(Cl)c2)CC3)C1`, greater than 6.10.
With `O=C(NC[C@@H]1CCNC1)Nc1nc2c(s1)-c1c(c(-c3cncnc3)nn1-c1ccccc1Cl)CC2`, the pIC50 is greater than 6.10.
`CC(C)c1cccc(CNC(=O)Nc2nc3c(s2)-c2c(c(-c4cccnc4)nn2C2CCN(C)CC2)CC3)c1` had a pIC50 greater than 6.10.
As for `CNC(=O)Nc1nc2c(s1)-c1c(c(-c3cncnc3)nn1-c1ccccc1F)CC2`, the figure is greater than 6.10.
`CC(C)(C)OC(=O)N[C@H]1CC[C@H](CNC(=O)Nc2nc3c(s2)-c2c(c(-c4cccnc4)nn2-c2ccccc2Cl)CC3)CC1` gave a pIC50 greater than 6.10.
In the case of `CC(C)(C)OC(=O)N1CCC[C@@H]1CNC(=O)Nc1nc2c(s1)-c1c(c(-c3ccccc3)nn1-c1ccccc1F)CC2` it was greater than 6.10; in that of `O=C(Nc1cccc(N2CCNCC2)c1)Nc1nc2c(s1)-c1c(c(-c3cncnc3)nn1-c1ccccc1F)CC2`, greater than 6.10; in that of `O=C(NCc1ccc(CN2CCNC2=O)cc1)Nc1nc2c(s1)-c1c(c(-c3cccnc3)nn1-c1ccccc1Cl)CC2`, greater than 6.10.
As for `O=C(NCCc1cccc(N2CCNC2=O)c1)Nc1nc2c(s1)-c1c(c(-c3cncnc3)nn1-c1ccccc1Cl)CC2`, the figure is greater than 6.10; as for `CN(C)C(=O)[C@@H]1CCCC[C@H]1NC(=O)Nc1nc2c(s1)-c1c(c(-c3ccccc3)nn1-c1ccccc1Cl)CC2`, greater than 6.10.
For the compound `CCc1cnc(CCNC(=O)Nc2nc3c(s2)-c2c(c(C4CC4)nn2-c2ccccc2Cl)CC3)o1`, the negative logarithm of the IC50 (pIC50) is greater than 6.10.
In the case of `NC(=O)c1cccc(CNC(=O)Nc2nc3c(s2)-c2c(c(-c4cccnc4)nn2-c2ccccc2Cl)CC3)c1` it was greater than 6.10; in that of `O=C(NCCc1nc(C2CC2)no1)Nc1nc2c(s1)-c1c(c(Nc3ccccn3)nn1-c1ccccc1)CC2`, greater than 6.10; in that of `CCc1csc(CCNC(=O)Nc2nc3c(s2)-c2c(c(-c4cccnc4)nn2C2CCN(C4CCCC4)CC2)CC3)n1`, greater than 6.10.
In the case of `CC(C)CNC(=O)CCNC(=O)Nc1nc2c(s1)-c1c(c(-c3cncnc3)nn1-c1ccccc1Cl)CC2` it was greater than 6.10.
In the case of `CC(C)(C)OC(=O)N1CC[C@@H](CNC(=O)Nc2nc3c(s2)-c2c(c(-c4cncnc4)nn2-c2ccccc2Cl)CC3)C1` it was greater than 6.10; in that of `NC(=O)c1ccc(CNC(=O)Nc2nc3c(s2)-c2c(c(-c4cncnc4)nn2-c2ccccc2Cl)CC3)cc1`, greater than 6.10.
With `O=C(NCc1ccccc1-n1cccn1)Nc1nc2c(s1)-c1c(c(-c3cccnc3)nn1-c1ccccc1Cl)CC2`, the negative logarithm of the IC50 (pIC50) is greater than 6.10.
In the case of `CCN1CCC2(CCN(C(=O)Nc3nc4c(s3)-c3c(c(-c5cccnc5)nn3-c3ccccc3Cl)CC4)C2)C1` (stereo unspecified) it was greater than 6.10; in that of `O=C(Nc1nc2c(s1)-c1c(c(-c3cccnc3)nn1-c1ccccc1Cl)CC2)N1CCC(N2Cc3ccccc3NC2=O)C1` (stereo unspecified), greater than 6.10; in that of `O=C(NCCc1cccc(N2CCNC2=O)c1)Nc1nc2c(s1)-c1c(c(-c3cccnc3)nn1-c1ccccc1Cl)CC2`, greater than 6.10.
The compound `C[C@@H](NC(=O)Nc1nc2c(s1)-c1c(c(-c3ccccc3)nn1-c1ccccc1Cl)CC2)C(=O)N1CCOCC1` gave a pIC50 greater than 6.10.
As for `Cc1ccc(CN2CC(CNC(=O)Nc3nc4c(s3)-c3c(c(-c5cccnc5)nn3-c3ccccc3Cl)CC4)CC2=O)cc1` (stereo unspecified), the figure is greater than 6.10; as for `CN(C)CCNC(=O)Nc1nc2c(s1)-c1c(c(-c3cncnc3)nn1-c1ccccc1Cl)CC2`, greater than 6.10.
On to `O=C(NCc1ccc2nc[nH]c2c1)Nc1nc2c(s1)-c1c(c(-c3cncnc3)nn1-c1ccccc1Cl)CC2`, for which the pIC50 was greater than 6.10.
In the case of `Cc1nc(C)c(S(=O)(=O)NCCNC(=O)Nc2nc3c(s2)-c2c(c(-c4ccccc4)nn2-c2ccccc2Cl)CC3)s1` it was greater than 6.10.
As for `CC(C)c1nnc(CCNC(=O)Nc2nc3c(s2)-c2c(c(C4CC4)nn2-c2ccccc2Cl)CC3)o1`, the figure is greater than 6.10; as for `CC(=O)N(C)c1cccc(CNC(=O)Nc2nc3c(s2)-c2c(c(-c4cccnc4)nn2-c2ccccc2Cl)CC3)c1`, greater than 6.10.
Turning to `O=C(NC[C@H]1CCCN1)Nc1nc2c(s1)-c1c(c(-c3cncnc3)nn1-c1ccccc1Cl)CC2`, the pIC50 was greater than 6.10.
In the case of `CN(C)CCOc1cccc(CNC(=O)Nc2nc3c(s2)-c2c(c(-c4cncnc4)nn2-c2ccccc2Cl)CC3)c1` it was greater than 6.10; in that of `O=C(NCCc1nc(C2CC2)no1)Nc1nc2c(s1)-c1c(c(-c3ccccc3)nn1-c1cccc(Cl)c1)CC2`, greater than 6.10.
The compound `O=C(NCc1cccc(-c2ccccc2)c1)Nc1nc2c(s1)-c1c(c(-c3cncnc3)nn1-c1ccccc1Cl)CC2` showed a pIC50 greater than 6.10.
In the case of `O=C(NC[C@H]1CCCN1C(=O)OCc1ccccc1)Nc1nc2c(s1)-c1c(c(-c3cncnc3)nn1-c1ccccc1Cl)CC2` it was greater than 6.10; in that of `CN1CCC(n2nc(-c3cncnc3)c3c2-c2sc(NC(=O)NC[C@H]4CCCN4C(=O)N4CCCC4)nc2CC3)CC1`, greater than 6.10.
In the case of `O=C(NCCC(=O)N1CCCC1)Nc1nc2c(s1)-c1c(c(-c3cncnc3)nn1-c1ccccc1Cl)CC2` it was greater than 6.10; in that of `CNC(=O)Nc1nc2c(s1)-c1c(c(-c3cncnc3)nn1-c1ccccc1Cl)CC2`, greater than 6.10; in that of `O=C(NCCc1cccc(C(F)(F)F)c1)Nc1nc2c(s1)-c1c(c(-c3cncnc3)nn1-c1ccccc1Cl)CC2`, greater than 6.10.
Take `CC(C)c1nnc(CCNC(=O)Nc2nc3c(s2)-c2c(c(-c4cncnc4)nn2-c2ccccc2Cl)CC3)o1`: the pIC50 is greater than 6.10.
As for `O=C(NC[C@H]1CCCN1C(=O)Cc1ccccc1)Nc1nc2c(s1)-c1c(c(-c3cncnc3)nn1-c1ccccc1Cl)CC2`, the figure is greater than 6.10; as for `O=C(NCCc1cn[nH]c1)Nc1nc2c(s1)-c1c(c(-c3cccnc3)nn1-c1ccccc1Cl)CC2`, greater than 6.10.
As for `O=C(NCCc1ccccn1)Nc1nc2c(s1)-c1c(c(-c3cncnc3)nn1-c1ccccc1Cl)CC2`, the figure is greater than 6.10; as for `CCN1CCC(n2nc(-c3cccnc3)c3c2-c2sc(NC(=O)NCc4cccc(N5CCNC5=O)c4)nc2CC3)CC1`, greater than 6.10.
As for `CC(=O)NCC1CCCN(C(=O)Nc2nc3c(s2)-c2c(c(-c4cccnc4)nn2-c2ccccc2Cl)CC3)C1` (stereo unspecified), the figure is greater than 6.10.
For the compound `CC(=O)N(C)c1cccc(CNC(=O)Nc2nc3c(s2)-c2c(c(C4CC4)nn2-c2ccccc2Cl)CC3)c1`, the pIC50 is greater than 6.10.
As for `CNC(=O)Nc1nc2c(s1)-c1c(c(-c3cccnc3)nn1-c1ccccc1Cl)CC2`, the figure is greater than 6.10.
In the case of `CNC(=O)Nc1nc2c(s1)-c1c(c(-c3ccccc3)nn1-c1ccccc1Cl)CC2` it was greater than 6.10; in that of `CCc1noc(CCNC(=O)Nc2nc3c(s2)-c2c(c(-c4cncnc4)nn2-c2ccccc2Cl)CC3)n1`, greater than 6.10; in that of `C[C@@H](C(=O)N1CCC[C@@H]1CNC(=O)Nc1nc2c(s1)-c1c(c(-c3cncnc3)nn1-c1ccccc1Cl)CC2)N(C)C(=O)OC(C)(C)C`, greater than 6.10.

As usually defined, the pIC50 is the negative decadic logarithm of the IC50, by convention in mol/L.
